pEC50: −log10 of the molar value.
Assays:
HCV replicon = assay: Anti-HCV replicon assay, EC50 (luciferase readout); assay type: cell-based; conditions: Hepatitis C virus, 72 h; Huh-7 HCV replicon cells, 3 days incubation, luciferase luminescence
Method in brief: (§1)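 Huh-7 cells harbouring an HCV replicon (6000/well) incubated 3 days at 37° C with 3-fold serially diluted compound (0.5% DMSO final where used). EC50 from luciferase luminescence of lysed cells; CC50 from CellTiter-Glo luminescence in parallel plates.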

[1] = CC50 assay in the anti-HCV replicon assay (CellTiter-Glo); assay type: cell-based, human; conditions: human, Huh-7 hepatoma cells harbouring an HCV replicon; Huh-7 HCV replicon cells, 3 days incubation, CellTiter-Glo luminescence
Method in brief: as §1

Structure (SMILES) | pEC50 (HCV replicon) | CC50 at 3 days [1] [µM]
CC(C)NC(=O)c1ccc(-c2ccc3nc(N)nc(OCCF)c3c2)cc1 [Example 202, 4-[2-Amino-4-(2-fluoro-ethoxy)-quinazolin-6-yl]-N-isopropyl-benzamide] | 5.00 to 6.00 | > 20
CONC(=O)c1ccc(-c2ccc3nc(N)nc(OCCF)c3c2)cc1 [Example 203, 4-[2-Amino-4-(2-fluoro-ethoxy)-quinazolin-6-yl]-N-methoxy-benzamide] | 5.00 to 6.00 | > 20
Nc1nc(OCCF)c2cc(-c3ccc(C(=O)N4CCSC4)cc3)ccc2n1 [Example 204, {4-[2-Amino-4-(2-fluoro-ethoxy)-quinazolin-6-yl]-phenyl}-thiazolidin-3-yl-methanone] | 5.00 to 6.00 | > 20
Nc1nc(OCCF)c2cc(-c3ccc(C(=O)N4CCSCC4)cc3)ccc2n1 [Example 205, {4-[2-Amino-4-(2-fluoro-ethoxy)-quinazolin-6-yl]-phenyl}-thiomorpholin-4-yl-methanone] | 5.00 to 6.00 | > 20
Nc1nc(OCCF)c2cc(-c3ccc(C(=O)NC4=NCCS4)cc3)ccc2n1 [Example 206, 4-[2-Amino-4-(2-fluoro-ethoxy)-quinazolin-6-yl]-N-(4,5-dihydro-thiazol-2-yl)-benzamide] | 5.00 to 6.00 | > 20
CNC(=O)c1ccc(-c2ccc3nc(N)nc(OCCF)c3c2)cc1Cl [Example 207, 4-[2-Amino-4-(2-fluoro-ethoxy)-quinazolin-6-yl]-2-chloro-N-methyl-benzamide] | 5.00 to 6.00 | > 20
Nc1nc(OCCF)c2cc(-c3ccc(C(=O)NC4CC4)c(Cl)c3)ccc2n1 [Example 208, 4-[2-Amino-4-(2-fluoro-ethoxy)-quinazolin-6-yl]-2-chloro-N-cyclopropyl-benzamide] | 5.00 to 6.00 | > 20
Nc1nc(OCCF)c2cc(-c3ccc(O)cc3)ccc2n1 [Example 209, 4-[2-Amino-4-(2-fluoro-ethoxy)-quinazolin-6-yl]-phenol] | 5.00 to 6.00 | > 20
Nc1nc(OCCF)c2cc(-c3cccc(O)c3)ccc2n1 [Example 210, 3-[2-Amino-4-(2-fluoro-ethoxy)-quinazolin-6-yl]-phenol] | 5.00 to 6.00 | > 20
Nc1nc(OCCF)c2cc(-c3ccc(C(=O)NC4CC4)cc3)ccc2n1 [Example 211, 4-[2-Amino-4-(2-fluoro-ethoxy)-quinazolin-6-yl]-N-cyclopropyl-benzamide] | 6.00 to 6.52 | > 20
CNC(=O)c1ccc(-c2ccc3nc(N)nc(OCCF)c3c2)cc1 [Example 212, 4-[2-Amino-4-(2-fluoro-ethoxy)-quinazolin-6-yl]-N-methyl-benzamide] | 5.00 to 6.00 | > 20
Nc1nc(OC[C@@H]2CCCO2)c2cc(-c3ccc(C(=O)NC4CC4)cc3)ccc2n1 [Example 213] | > 6.52 | > 20
CCOc1nc(N)nc2ccc(-c3ccc(C(N)=O)cc3)cc12 [Example 214, 4-(2-Amino-4-ethoxy-quinazolin-6-yl)-benzamide] | > 6.52 | > 20
Nc1nc(O[C@H]2CCOC2)c2cc(-c3ccc(C(=O)NC4CC4)cc3)ccc2n1 [Example 215, (S)-4-[2-Amino-4-(tetrahydro-furan-3-yloxy)-quinazolin-6-yl]-N-cyclopropyl-benzamide] | > 6.52 | > 20
CN(C)CCNC(=O)c1ccc(-c2ccc3nc(N)nc(O[C@H]4CCOC4)c3c2)cc1 [Example 216] | > 6.52 | > 20
Nc1nc(O[C@@H]2CCOC2)c2cc(-c3ccc(C(=O)NCCN4CCOCC4)cc3)ccc2n1 [Example 217, (R)-4-[2-Amino-4-(tetrahydro-furan-3-yloxy)-quinazolin-6-yl]-N-(2-morpholin-4-yl-ethyl)-benzamide] | > 6.52 | > 20
Nc1nc(O[C@@H]2CCOC2)c2cc(-c3ccc(C(=O)NCCN4CCCC4)cc3)ccc2n1 [Example 218, (R)-4-[2-Amino-4-(tetrahydro-furan-3-yloxy)-quinazolin-6-yl]-N-(2-pyrrolidin-1-yl-ethyl)-benzamide] | > 6.52 | < 10
Nc1nc(O[C@@H]2CCOC2)c2cc(-c3ccc(C(=O)NCC(F)(F)F)cc3)ccc2n1 [Example 219, (R)-4-[2-Amino-4-(tetrahydro-furan-3-yloxy)-quinazolin-6-yl]-N-(2,2,2-trifluoro-ethyl)-benzamide] | > 6.52 | > 20
Nc1nc(O[C@@H]2CCOC2)c2cc(-c3ccc(C(=O)NCCCN4CCCC4)cc3)ccc2n1 [Example 220, (R)-4-[2-Amino-4-(tetrahydro-furan-3-yloxy)-quinazolin-6-yl]-N-(3-pyrrolidin-1-yl-propyl)-benzamide] | > 6.52 | < 10

Structure (SMILES) | pEC50 (HCV replicon) | CC50 at 3 days [1] [µM]
CC(C)(CN1CCOCC1)NC(=O)c1ccc(-c2ccc3nc(N)nc(O[C@@H]4CCOC4)c3c2)cc1 [Example 222, (R)-4-[2-Amino-4-(tetrahydro-furan-3-yloxy)-quinazolin-6-yl]-N-(1,1-dimethyl-2-morpholin-4-yl-ethyl)-benzamide] | > 6.52 | > 20
CC(C)(CN1CCCC1)NC(=O)c1ccc(-c2ccc3nc(N)nc(O[C@@H]4CCOC4)c3c2)cc1 [Example 223, (R)-4-[2-Amino-4-(tetrahydro-furan-3-yloxy)-quinazolin-6-yl]-N-(1,1-dimethyl-2-pyrrolidin-1-yl-ethyl)-benzamide] | > 6.52 | < 10
N#CC1(NC(=O)c2ccc(-c3ccc4nc(N)nc(O[C@@H]5CCOC5)c4c3)cc2)CC1 [Example 224, (R)-4-[2-Amino-4-(tetrahydro-furan-3-yloxy)-quinazolin-6-yl]-N-(1-cyano-cyclopropyl)-benzamide] | > 6.52 | > 20
CC(C)N1CCC(NC(=O)c2ccc(-c3ccc4nc(N)nc(O[C@@H]5CCOC5)c4c3)cc2)CC1 [Example 225, (R)-4-[2-Amino-4-(tetrahydro-furan-3-yloxy)-quinazolin-6-yl]-N-(1-isopropyl-piperidin-4-yl)-benzamide] | 5.00 to 6.00 | > 20
CN(C)CCCOc1nc(N)nc2ccc(-c3cc4ccccc4o3)cc12 [Example 227, 6-benzofuran-2-yl-4-(3-dimethylaminopropoxy)-quinazolin-2-ylamine] | 5.00 to 6.00 | > 20
CN(C)CCCOc1nc(N)nc2ccc(-c3ccc(Cl)cc3Cl)cc12 [Example 229, 6-(2,4-Dichlorophenyl)-4-(3-dimethylamino-propoxy)-quinazolin-2-ylamine] | 5.00 to 6.00 | > 20
CN(C)CCCOc1nc(N)nc2ccc(-c3cc(F)c(F)c(F)c3)cc12 [Example 230, 4-(3-Dimethylamino-propoxy)-6-(3,4,5-trifluoro-phenyl)-quinazolin-2-ylamine] | 5.00 to 6.00 | > 20
Cc1cc(C)cc(-c2ccc3nc(N)nc(OCCCN(C)C)c3c2)c1 [Example 231, 4-(3-Dimethylamino-propoxy)-6-(3,5-dimethyl-phenyl)-quinazolin-2-ylamine] | 5.00 to 6.00 | > 20
CN(C)CCCOc1nc(N)nc2ccc(-c3ccc(Cl)cc3)cc12 [Example 232, 6-(4-Chloro-phenyl)-4-(3-dimethylamino-propoxy)-quinazolin-2-ylamine] | 5.00 to 6.00 | > 20
CN(C)CCCOc1nc(N)nc2ccc(-c3cccc(C(F)(F)F)c3)cc12 [Example 233, 4-(3-Dimethylamino-propoxy)-6-(3-trifluoromethyl-phenyl)-quinazolin-2-ylamine] | 5.00 to 6.00 | > 20
Nc1nc(OCCN2CCOCC2)c2cc(-c3ccc(Cl)c(C(F)(F)F)c3)ccc2n1 [Example 234, 6-(4-Chloro-3-trifluoromethyl-phenyl)-4-(2-morpholin-4-yl-ethoxy)-quinazolin-2-ylamine] | 5.00 to 6.00 | 10 to 20
Nc1nc(OCCN2CCOCC2)c2cc(-c3ccc(O)cc3)ccc2n1 [Example 235, 4-[2-Amino-4-(2-morpholin-4-yl-ethoxy)-quinazolin-6-yl]-phenol] | 5.00 to 6.00 | > 20
Nc1nc(OCCN2CCOCC2)c2cc(-c3ccsc3)ccc2n1 [Example 236, 4-(2-Morpholin-4-yl-ethoxy)-6-thiophen-3-yl-quinazolin-2-ylamine] | 5.00 to 6.00 | > 20
Nc1nc(OCCN2CCOCC2)c2cc(-c3cccs3)ccc2n1 [Example 237, 4-(2-Morpholin-4-yl-ethoxy)-6-thiophen-2-yl-quinazolin-2-ylamine] | 5.00 to 6.00 | > 20
Nc1nc(OCCN2CCOCC2)c2cc(-c3cc4ccccc4o3)ccc2n1 [Example 238, 6-Benzofuran-2-yl-4-(2-morpholin-4-yl-ethoxy)-quinazolin-2-ylamine] | 5.00 to 6.00 | 10 to 20
Nc1nc(OCCN2CCOCC2)c2cc(-c3ccoc3)ccc2n1 [Example 239, 6-Furan-3-yl-4-(2-morpholin-4-yl-ethoxy)-quinazolin-2-ylamine] | 5.00 to 6.00 | 10 to 20
Nc1nc(OCCN2CCOCC2)c2cc(-c3cc4ccccc4s3)ccc2n1 [Example 240, 6-Benzo[b]thiophen-2-yl-4-(2-morpholin-4-yl-ethoxy)-quinazolin-2-ylamine] | 5.00 to 6.00 | > 20
Nc1nc(OCCN2CCOCC2)c2cc(-c3ccccc3C(F)(F)F)ccc2n1 [Example 241, 4-(2-Morpholin-4-yl-ethoxy)-6-(2-trifluoromethyl-phenyl)-quinazolin-2-ylamine] | 5.00 to 6.00 | > 20
Nc1nc(OCCN2CCOCC2)c2cc(-c3cccc(C(F)(F)F)c3)ccc2n1 [Example 242, 4-(2-Morpholin-4-yl-ethoxy)-6-(3-trifluoromethyl-phenyl)-quinazolin-2-ylamine] | 5.00 to 6.00 | 10 to 20

Source: patent publication US8673929B2, “4,6-di- and 2,4,6-trisubstituted quinazoline derivatives and pharmaceutical compositions useful for treating viral infections” (priority 2006, dated 2014)
